Measurements: patent publication US6497898B1, “Surfactant, and an emulsion-type cosmetic composition and a lipsome containing said surfactant” (Kanebo LTD, priority 1993, dated 2002)

Each molecule was assayed on skin (assay: Safety test: skin irritation patch test of the surfactants). Details: Sample (solution) per table head; patch on 20 subjects for 24 hours, evaluated 24 hours after removing; clear erythema = positive.
Type: in vivo
Experimental: As a safety test on the above trehalose-6-fatty acid esters, irritation to skin was examinaed in accordance with the following procedures.
[…] Irritaion was evaluated 24 hours after removing the patch. […] Sodium laurylphosphate used as a control is a surfactant which is usually used in shampoos, body shampoos and the like.

**Q.** `C=CCCCCCCCCC(=O)OCC1OC(OC2OC(CO)C(O)C(O)C2O)C(O)C(O)C1O` (stereo not shown) [6-(10-Undecylenyl)-trehalose, 6-(10-undecylenyl)-trehalose] was tested. Which “Irritation to skin, positive, %” value did it give?
**A.** 0%

**Q.** Which “Irritation to skin, positive, %” value does the source give for `CCCCCCCCCCCC(=O)OCC1OC(OC2OC(CO)C(O)C(O)C2O)C(O)C(O)C1O` (stereo not shown) [6-Lauroyl-trehalose, 6-lauroyl-trehalose] here?
**A.** 0%

**Q.** How did the “Irritation to skin, positive, %” value turn out when `CCCCCCCCCCCCCCCCCC(=O)OC[C@H]1O[C@H](O[C@H]2O[C@H](CO)[C@@H](O)[C@H](O)[C@H]2O)[C@H](O)[C@@H](O)[C@@H]1O` [6-Stearoyl-trehalose, 6-stearoyl-trehalose] was run?
**A.** 0%

**Q.** How did the “Irritation to skin, positive, %” value turn out when `CCCCCCCCCCCCOP(=O)([O-])O.[Na+]` [Monosodium lauryl phosphate, reference compound] was run?
**A.** 0.5%
